Assay results from US20250108070A1, “METHOD FOR REPROGRAMMING CD8+ T CELLS TO ENHANCE THEIR THERAPEUTIC POTENTIAL AND APPLICATIONS THEREOF” (INSTITUT PASTEUR, priority 2022, published 2025).
Where two headings read alike, the source gives them in different places.

What was measured:
human CD8+ T cells [1] = assay: Screening of GSK3 inhibitors: markers and memory phenotypes by flow cytometry; type: cell-based
Protocol: (§1) FIG. 12. Screening molecules for reprogramming human CD8^+ T cells Total CD8^+ T cells were purified and treated for 12 hs with titrated doses of GSK3 inhibitors or DMSO vehicle control. After drug washout, cells were stimulated for 48 hs with plate-bound anti-CD3/anti-CD28 antibodies (at 1 mg/mL), followed by flow cytometry analyses. A. Upon stimulation, intracellular cytokine and phospho-protein staining was performed, the latter for the detection of phospho-S6 and phospho-AKT proteins (indicative of activation of mTORC1 and mTORC2 pathways, respectively). The fold change in the frequency of IFN-γ^+TNF-α^+ and pS6^+pAKT^+ cells induced by the treatment with each GSK3 inhibitor, relative to DMSO control, was analyzed. […] B. Fold change in the expression of the indicated markers and memory phenotypes induced by anti-CD3/anti-CD28 antibody stimulation relative to unstimulated cells (at least 3 donors per condition). TCM: T central memory; TEM: T effector memory; TTM: T transitional memory; TTE: T terminal effector; TSCM: T stem cell memory.
(§2) For reprogramming of CD8^+ T cells followed by polyclonal stimulation, cells were isolated by negative magnetic bead sorting (Stemcell Technologies). For reprogramming of CD8^+ T cells followed by antigen-specific stimulation, PBMC and magnetically separated CD8^+ T cells and non-CD8^+ T cells were used (REAlease® CD8 MicroBead Kit; Miltenyi Biotech). Then, CD8^+ T cells were treated with a GSK3 inhibitor (6-Bromoindirubin-3′-oxime; BIO; Sigma-Aldrich), at 3 μM, or an equivalent concentration of dimethyl sulfoxide (DMSO) vehicle control, in complete medium, for 12 hs at 37° C., 5% CO2. Non-CD8 cells were left resting during this time in complete medium. CD8^+ T cells were washed with complete medium and stimulated with the peptide pool in presence of non-CD8 T cells.
(§3) In some experiments, cells were culture in RPMI medium without glucose (MP Biomedicals). CD8^+ T cell proliferation was evaluated by CFSE dilution (at 1 μM, Thermo Fisher Scientific). In additional experiments, reprogrammed CD8^+ T cells were stimulated with IL-7 or IL-15 (both at 10 ng/mL; R&D) and cultured for 6 days. In all the cases, cells were cultured at a density of 2×10^6 cells/mL.
(§4) After cultures, cells were stained with the LIVE/DEAD Fixable Aqua Dead Cell Stain kit (Thermo Fisher Scientific), with anti-CD3 Alexa Fluor 700 or APC efluor 780 and anti-CD8 PE Texas Red antibodies, accordingly. […] In some experiments, cells were stained with APC-conjugated dextramers (Immudex), incubated for 15 minutes at room temperature. Additional surface staining panels included anti-HLA-DR Superbright 780, anti-CD38 Superbright 600, anti-PD-1 BV421, anti-LAG-3 APC efluor 780, anti-TIM3 PE Cy7, and anti-TIGIT BV786 antibodies, or anti-CD122 PE and anti-CD215 FITC antibodies. The BD Transcription Factor Buffer Set kit (BD Biosciences) was used for cell fixation and permeabilization. […] Cell acquisition was performed using LSR II or ARIA III flow cytometers (both from BD Biosciences), and data were analyzed with FlowJo v.10 software (BD Biosciences).

GSK3 [2] = settings: cited from earlier work; for IC50: GSK3 inhibitor, review Front. Mol. Neurosci. 2011
human CD8+ T cells [3] = assay: Screening of GSK3 inhibitors: cytokine polyfunctionality (IFN-γ+TNF-α+) of CD8+ T cells after anti-CD3/anti-CD28 stimulation; type: cell-based; settings: for Fold change in IFN-γ+ TNF-a+cells (relative to DMSO): 12 hs at optimal dose, washout, 48 hs anti-CD3/anti-CD28, symbols not defined; for IFN-γ+TNF-α+ cells (polyfunctionality) relative to vehicle control: FIG. 12A, in words
Protocol: as §1, §2, §3, §4
(§5) The inventors explored GSK3 inhibitors to expand the array of molecules that could be used for CD8^+ T cell reprogramming. They implemented a screening approach that combined the evaluation of cytokine polyfunctionality of CD8^+ T cells (IFN-γ+TNFα+) vs the activation of mTORC1 and mTORC2 pathways (pS6+pAKT+) upon treatment with the GSK3 inhibitors and subsequent polyclonal stimulation.

[4] = test system: mTORC1 and mTORC2 pathways; assay: Screening of GSK3 inhibitors: phospho-S6 / phospho-AKT staining (activation of mTORC1 and mTORC2 pathways); type: cell-based, human; settings: for Fold change in pS6+pAKT+cells (relative to DMSO): 12 hs at optimal dose, washout, 48 hs anti-CD3/anti-CD28, symbols not defined; for frequency of pS6+pAKT+ cells / activation of mTORC pathway: FIG. 12A, in words
Protocol: as §1, §2, §3, §4, §5

[5] = test system: CD8+ T cells from people without HIV; assay: In vitro reprogramming of bulk CD8+ T cells, phenotype without further stimulation; type: cell-based, human; settings: BIO and TWS119 in parallel, 3 μM, 12 hs
Protocol: FIG. 1. Induction of stem-like CD8^+ T cells with high survival capacity and polyfunctionality by in vitro reprogramming. A. CD8^+ T cells from people without HIV were incubated with medium, vehicle control, or a GSK3 inhibitor, for 12 hs and the phenotype was evaluated by flow cytometry. A representative donor from a total of 4 is shown. B. Frequencies of CD8^+ T cell subpopulations after each treatment. C. Fold change of CD8^+ T cell subpopulations after treatment with vehicle control or a GSK3 inhibitor, relative to medium alone condition (n=4). D. Expression of TCF-1 in CD8^+ T cell subpopulations (n=4). E. The expression of the indicated markers in cells pre-treated with vehicle control or a GSK3 inhibitor was evaluated by flow cytometry. The fold change in the expression induced by 48 hs anti-CD3/CD28 stimulation, relative to unstimulated cells, is shown (n=5). F. Left: Flow cytometry analysis of dead cells (Aqua Live/Dead^+) among total and T-bet+CD8^+ T cells. Right: Fold change in dead CD8^+ T cells induced by anti-CD3/CD28 stimulation, relative to the unstimulated condition (n=5). G. Frequencies of granzyme B^+, TL-2^+, IFN-γ^+, and TNF-α^+CD8^+ T cells after anti-CD3/CD28 stimulation. H. Expression of 1 to 4 functions in CD8^+ T cells after anti-CD3/CD28 stimulation (n=5). I. After reprogramming with the GSK3 inhibitor, CD8^+ T cells were stimulated for 48 hs with anti-CD3/CD28, followed by wash and resting for 5 days. Then, cells were restimulated for another 48 hs with anti-CD3/CD28. Left: Flow cytometry analysis of proliferating (CFSE dilution) CD8^+ T cells. Right: Frequencies of CD8^+ T cells with 0, 1-3 or ≥4 cell divisions (n=9). J. Frequency of the total HCMV pp65-specific CD8^+ T cell response (IFN-γ^+ or CD107a^+ or TNF-α^+), after vehicle control or GSK3 inhibitor treatment, followed by HCMV pp65 peptides stimulation for 6 hs (n=6). K. Frequencies of CD8^+ T cell subpopulations among HCMV pp65-specific CD8^+ T cells (n=6). L. Expression of IFN-γ, CD107a, and TNF-α in HCMV pp65-specific CD8^+ T cells (n=6). M. Frequency of the total HCMV pp65-specific CD8^+ T cell response after HCMV pp65 peptides stimulation for 6 days (n=6). *P<0.05; **P≤0.01. NS: Not statistically significant. TSCM: Stem cell memory; TCM: Central memory; TTM: Transitional memory; TEM: Effector memory; TTE: Terminal effector.
FIG. 2. A. Flow cytometry gating strategy used to identify CD8^+ T cell subpopulations: Naïve, Stem cell memory (TSCM), Central memory (TCM), Transitional memory (TTM), Effector memory (TEM), and Terminal effector (TTE). B. Expression of CCR7, CD27 and TCF-1 in total CD8^+ T cells after treatment with vehicle control, or the GSK3 inhibitors BIO or TWS119, for 12 hs. The median fluorescence intensity of each marker is depicted. C. Fold change in TSCM, TCM and TEM cells induced by BIO or TWS119, relative to vehicle control (n=3 people without HIV). D. Fold change in T-bet^+ cells among TSCM and TCM induced by anti-CD3/CD28 stimulation, relative to vehicle control, in cells previously treated with vehicle control, BIO or TWS119 (n=3). E. Fold change in T-bet^+ cells among naïve/TSCM induced by anti-CD3/CD28 stimulation (0.2 and 1 μg/mL), relative to unstimulated cells, previous treatment with vehicle control or the GSK3 inhibitor (n=3). F. Fold change in T-bet^+ cells among each CD8^+ T cell subpopulation induced by anti-CD3/CD28+ICAM-1 stimulation, relative to unstimulated cells (n=5). G. Frequency of IL-2^+TNF-α^+ cells among each CD8^+ T cell subpopulation after anti-CD3/CD28+ICAM-1 stimulation (n=5). H. Correlation between the frequency of PD-1^+LAG-3^+TIM3^+TIGIT^+CD8^+ T cells and the proportion of CD8^+ T cells with ≥4 cell divisions after restimulation (n=6). I. After reprogramming with the GSK3 inhibitor, CD8^+ T cells were left unstimulated, stimulated once for 48 hs with anti-CD3/CD28, or stimulated twice with anti-CD3/CD28. The expression of T-bet in TCM and TTM cells is shown (n=5). *P<0.05. […]

GSK3 [6] = settings: reference 42; cited from earlier work
[7] = 12 hs at optimal dose, anti-CD3/anti-CD28 stimulation relative to unstimulated cells, symbols not defined

## CN(C)CCCn1cc(C2=C(c3c[nH]c4ccccc34)C(=O)NC2=O)c2ccccc21 [GF 109203X]
Human CD8+ T cells [1]; [7]
  Fold change in % HLA+ CD38+: − −

## O=C([O-])[O-].[Li+].[Li+] [Lithium carbonate]
Human CD8+ T cells [1]; [7]
  Fold change in % HLA+ CD38+: + +

## O[C@]12C=C(c3nccc4c3[nH]c3ccccc34)[C@@H]3CCN(CCCC/C=C\CC1)C[C@@]31C[C@@H]3/C=C\CCCCN3[C@H]12 [Manzamine A]
GSK3 [2]
  IC50: 1500 nM

## COc1ccc(-c2ocnc2C(=O)NCCCn2cncn2)cc1Cl [PF-04802367]
Human CD8+ T cells [3]
  Fold change in IFN-γ+ TNF-a+cells (relative to DMSO): + +
  IFN-γ+TNF-α+ cells (polyfunctionality) relative to vehicle control: increased
[4]
  Fold change in pS6+pAKT+cells (relative to DMSO): + +
  frequency of pS6+pAKT+ cells / activation of mTORC pathway: activation of mTORC pathway

## COc1ccc2c(c1)/C(=C/c1cnc[nH]1)C(=O)N2 [SU 9516]
Human CD8+ T cells [3]
  Fold change in IFN-γ+ TNF-a+cells (relative to DMSO): + +
  IFN-γ+TNF-α+ cells (polyfunctionality) relative to vehicle control: increased
[4]
  Fold change in pS6+pAKT+cells (relative to DMSO): + +
  frequency of pS6+pAKT+ cells / activation of mTORC pathway: activation of mTORC pathway
Human CD8+ T cells [1]; [7]
  Fold change in % HLA+ CD38+: + +

## CN[C@@H]1C[C@H]2O[C@@](C)([C@@H]1OC)n1c3ccccc3c3c4c(c5c6ccccc6n2c5c31)C(=O)NC4 [Staurosporine]
Human CD8+ T cells [1]
  Fold change in % CD127+ T-bet−: +
  Fold change in % HLA+ CD38+: −
  Fold change in % LAG3+ PD1+: −
  Fold change in % TTM: +

## Nc1cccc(-c2cc3c(Oc4cccc(O)c4)ncnc3[nH]2)c1 [TWS119, 3-[[6-(3-aminophenyl)-7H-pyrrolo[2,3-d]pyrimidin-4-yl]oxy]phenol]
[5]; FIG. 2B
  CCR7, CD27, and TCF-1: induced
[5]; FIG. 2C
  TEM cells: decrease
  TSCM and TCM cells: increase
GSK3 [2]
  IC50: 0.6 to 7 nM
  selectivity of inhibition of GSK3: highly selective inhibitors
GSK3 [6]
  Wnt/β-catenin/TCF-1 pathway: induce the activation

## O=c1sn(-c2cccc3ccccc23)c(=O)n1Cc1ccccc1 [Tideglusib (NP031112)]
Human CD8+ T cells [1]; FIG. 12B, in words
  frequencies of CD127− T-bet+ cells, and LAG-3+ PD-1+ cells: higher frequencies
  phenotype / profile promoted in CD8+ T cells: promoted an effector-like profile

## [Zn+2] [Zinc]
GSK3 [2]
  IC50: 15000 nM
